Test results: patent US20250359548A1, “METHODS OF IMPROVING STRESS TOLERANCE, GROWTH AND YIELD IN PLANTS” (Valent BioSciences LLC, priority 2020, published 2025)

Columns and labels:
Format in all cases: in vivo
rice [1] = experiment: Example 6: grain yield in rice (spray at R5 to R6); details: 30 ppm spray at R5 to R6
Protocol: (§1) To determine if the mixtures provided unexpected results, the observed combined efficacy (“OCE”) was divided by the expected combined efficacy (“ECE”) to give an OCE/ECE ratio wherein the expected ECE is calculated by a variation of the Abbott method:
(§2) [formula] • wherein ECE is the expected combined efficacy and in which X is the control efficacy and A and B are the efficacy provided by the single active ingredients. If the ratio between the OCE of the mixture and the ECE of the mixture is greater than 1, then greater than expected interactions are present in the mixture. (Gisi, The American Phytopathological Society, 86:11, 1273-1279, 1996).
(§3) 48 pots of rice were grown in a greenhouse under ideal growing conditions. Specifically, rice was planted in growth media comprising sand and Pro-Mix® BX and grown for about 3-4 weeks in a growth cabinet at 24/18° C. day/night temperature under a 18/6 hour light/dark photoperiod. Next, spray applications of 0.025% v/v Latron B-1956® in water, 30 ppm ABA, 30 ppm 6BA, 45 ppm 6BA, a mixture of 30 ppm ABA and 30 ppm 6BA, and a mixture of 30 ppm ABA and 45 ppm 6BA (n=8) were made using a tank sprayer at early grain filling stage (growth stage R5 to R6). Plants were then grown under ideal conditions for an additional 5-7 weeks. Plants were then destructively harvested and measured for yield of top six panicles, yield from other panicles (not top six panicles), yield of all panicles, yield per panicle and yield per top six panicles.

rice [2] = experiment: Example 5: grain yield in rice (spray at R6)
Protocol: as §1, §2
as §3, with “32 pots” for “48 pots”, “ABA, 10” for “ABA, 30”, “ppm CPPU,” for “ppm 6BA, 45 ppm 6BA, a mixture of 30 ppm ABA and 30 ppm 6BA,”, “and 10” for “and 45”, “ppm CPPU” for “ppm 6BA”, “stage” for “stage R5 to”

Soybean = experiment: Example 8: grain yield in field soybean, Seymour IL 2020
Protocol: Soybean was grown in the field in Seymour, IL in 2020. Spray applications of water, 2 g/HA ABA, 6 g/HA ABA and a mixture of 2 g/HA ABA and 2 g/HA 6BA (n=8) were made using a tank sprayer at the beginning of seeding (growth stage R4 to R5). Plants were then grown until mature. Plants were then destructively harvested and measured for grain yield.

Corn = experiment: Example 7: grain yield in field corn, Seymour IL 2020
Protocol: Corn was grown in the field in Seymour, IL in 2020. Spray applications of water, 2 g/HA ABA, 6 g/HA ABA and a mixture of 2 g/HA ABA and 2 g/HA 6BA (n=8) were made using a tank sprayer at the blister to milk stage (growth stage R2-R3). Plants were then grown until mature. Plants were then destructively harvested and measured for grain yield.

Apogee wheat [3] = experiment: Example 1: grain yield in Apogee wheat under water stress (greenhouse pots, spray at Feekes 11.0); details: drought stress
Protocol: 42 pots of Apogee wheat were grown in a greenhouse under ideal growing conditions. Specifically, wheat was planted in ProMix® growth media and grown for about-seven weeks in a growth cabinet at 24/18° C. day/night temperature under a 16/8 hour light/dark photoperiod. Next, spray applications of 0.025% v/v Latron B-1956® in water, 30 ppm ABA, 30 ppm 6BA, 10 ppm CPPU, a mixture of 30 ppm ABA and 30 ppm 6BA and a mixture of 30 ppm ABA and 10 ppm CPPU (n=7) were made using a tank sprayer at Feekes stage 11.0. Plants were then grown with no additional water for next 3-5 days until drought stress conditions and water-deficit stress-related phenotypes were apparent. Specifically, drought stress conditions are determined as when pots have lost 60-70% of stored soil water, as determined by determined gravimetrically by weighing pots, through evapotranspiration and water-deficit stress-related phenotypes include wilting and leaf-rolling. Plants were re-watered to bring soil moisture to saturation and subsequently grown under optimal conditions until physiological maturity. Plants were then destructively harvested and measured for spike weight, grain weight, yield per spike and harvest index. Harvest index is calculated by dividing pounds of grain by the total pounds of above ground biomass.
as §1, §2

Apogee wheat [4] = experiment: Example 3: grain yield in Apogee wheat under well-watered conditions, two sprays
Protocol: as §1, §2
32 pots of Apogee wheat were grown in a greenhouse under ideal growing conditions. Specifically, wheat was planted in ProMix® growth media and grown for about seven weeks in a growth cabinet at 24/18° C. day/night temperature under a 16/8 hour light/dark photoperiod. Next, spray applications of 0.025% v/v Latron B-1956® in water, 30 ppm ABA, 10 ppm CPPU, and a mixture of 30 ppm ABA and 10 ppm CPPU (n=8) were made using a tank sprayer at Feekes stage 11.0. A second chemical spray application was made seven days after first spray. Plants were then grown under ideal conditions for an additional 5-6 weeks until they reached physiological maturity. Plants were then destructively harvested and measured for spike weight, grain yield, yield per spike and total above ground biomass.

Apogee wheat [5] = experiment: Example 4: grain yield in Apogee wheat under water stress, dose combinations; details: drought stress
Protocol: as §1, §2
72 pots of Apogee wheat were grown in a greenhouse under ideal growing conditions. Specifically, wheat was planted in ProMix® growth media and grown for about seven weeks in a growth cabinet at 24/18° C. day/night temperature under a 16/8 hour light/dark photoperiod. Next, spray applications of 0.025% v/v Latron B-1956® in water, 10 ppm ABA, 30 ppm ABA, 5 ppm CPPU, 10 ppm CPPU, a mixture of 10 ppm ABA and 5 ppm CPPU, a mixture of 30 ppm ABA and 5 ppm CPPU, a mixture of 10 ppm ABA and 10 ppm CPPU and a mixture of 30 ppm ABA and 10 ppm CPPU (n=8) were made using a tank sprayer at Feekes stage 11.0. Plants were then grown with no additional water for next 3-5 until drought stress conditions and water-deficit stress related phenotype was apparent. Plants were re-watered to bring soil moisture to saturation and grown under optimal conditions until physiological maturity. Plants were then destructively harvested and measured for spike weight, grain yield, yield per spike and total above ground biomass.

Barley = experiment: Example 9: grain yield in field barley, Argentina 2020
Protocol: Barley was grown in the field in Pieres, Buenos Aires Province, Argentina from Jun. 15 to Dec. 30, 2020. 2 g/HA ABA, 6 g/HA ABA and mixtures of 2 g/HA ABA and 2 g/HA 6BA and 4 g/HA ABA and 2 g/HA 6BA (n=8) were made using a tank sprayer at the beginning of milk grains (growth stage Zadoks 7.2). Plants were then grown until mature. Plants were then destructively harvested and measured for grain yield.

Apogee wheat [6] = experiment: Example 2: grain yield in Apogee wheat under water stress; details: 30 ppm spray; drought stress
Protocol: as §1, §2
Thirty-two pots of Apogee wheat were grown in a greenhouse under ideal growing conditions. Specifically, wheat was planted in ProMix® growth media and grown for about seven weeks in a growth cabinet at 24/18° C. day/night temperature under a 16/8 hour light/dark photoperiod. Next, spray applications of 0.025% v/v Latron B-1956® in water, 30 ppm ABA, 30 ppm 6BA, and a mixture of 30 ppm ABA and 30 ppm 6BA (n=8) were made using a tank sprayer at Feekes stage 11.0. Plants were then grown with no additional water for the next 3-5 days until drought stress conditions and water-deficit stress-related phenotypes were apparent. Plants were re-watered to bring soil moisture to saturation and grown under optimal conditions until physiological maturity. Plants were then destructively harvested and measured for shoot weight, spike weight, grain yield, yield per spike and total above ground biomass.

## (S)-abscisic acid [ABA]
Rice [1]
  Yield of All: 23.70 grams
  Yield of Others: 5.22 grams
  Yield of Top 6: 19.14 grams
  Yield per Panicle: 2.95 grams
  Yield per Top 6: 3.19 grams
Rice [2]; 30 ppm spray at R6
  Yield of All: 28.47 grams
  Yield of Others: 12.72 grams
  Yield of Top 6: 15.75 grams
  Yield per Panicle: 2.34 grams
  Yield per Top 6: 2.63 grams
Soybean; 2 g/HA spray at R4 to R5
  Grain Yield: 96.57 bushels/acre
Soybean; 6 g/HA spray at R4 to R5
  Grain Yield: 93.80 bushels/acre
Corn; 2 g/HA spray at R2-R3
  Grain Yield: 225 bushels/acre
Corn; 6 g/HA spray at R2-R3
  Grain Yield: 234 bushels/acre
Apogee wheat [3]; 30 ppm spray
  Grain Yield: 10.24 grams
  Harvest Index: 0.55
  Spike Weight: 14.06 grams
  Yield/Spike: 1.40 grams
Apogee wheat [4]; 30 ppm
  Grain Yield: 8.49 grams
  Spike Weight: 11.60 grams
  Total Above Ground Biomass: 15.38 grams
  Yield/Spike: 1.04 grams
Apogee wheat [5]; 10 ppm spray
  Grain Yield: 6.95 grams
  Spike Weight: 9.22 grams
  Total Above Ground Biomass: 12.11 grams
  Yield/Spike: 1.08 grams
Apogee wheat [5]; 30 ppm spray
  Grain Yield: 6.72 grams
  Spike Weight: 8.90 grams
  Total Above Ground Biomass: 11.47 grams
  Yield/Spike: 1.06 grams
Barley; 2 g/HA spray at Zadoks 7.2
  Grain Yield: 5319
Barley; 6 g/HA spray at Zadoks 7.2
  Grain Yield: 5114
Apogee wheat [6]
  Grain Yield: 12.12 grams
  Shoot Weight: 5.04 grams
  Spike Weight: 15.66 grams
  Total Above Ground Biomass: 20.70 grams
  Yield/Spike: 1.33 grams

## O=C(Nc1ccccc1)Nc1ccnc(Cl)c1 [CPPU, n-(2-chloro-4-pyridyl)-n′-phenylurea]
Rice [2]; 10 ppm spray at R6
  Yield of All: 26.33 grams
  Yield of Others: 11.16 grams
  Yield of Top 6: 15.17 grams
  Yield per Panicle: 2.22 grams
  Yield per Top 6: 2.53 grams
Apogee wheat [3]; 10 ppm spray
  Grain Yield: 9.69 grams
  Harvest Index: 0.56
  Spike Weight: 12.99 grams
  Yield/Spike: 1.34 grams
Apogee wheat [4]; 10 ppm
  Grain Yield: 8.28 grams
  Spike Weight: 11.86 grams
  Total Above Ground Biomass: 15.98 grams
  Yield/Spike: 0.95 grams
Apogee wheat [5]; 5 ppm spray
  Grain Yield: 6.20 grams
  Spike Weight: 8.57 grams
  Total Above Ground Biomass: 11.34 grams
  Yield/Spike: 0.98 grams
Apogee wheat [5]; 10 ppm spray
  Grain Yield: 6.32 grams
  Spike Weight: 8.12 grams
  Total Above Ground Biomass: 10.94 grams
  Yield/Spike: 1.00 grams
